Measured values from patent US12723074B2, “Medicament for treatment and/or prevention of cancer” (TORAY INDUSTRIES, INC., priority 2020, dated 2026).
Blank lines part the entries; values can stand above or below the molecule they belong to.

Assays:
[1] = tested on: Human breast cancer cells BT474; test: Antitumor effect in human breast cancer BT474-bearing NOG mice (combination with axitinib); assay type: in vivo; conditions: day 63 after cancer bearing
Method: Likewise, in vivo antitumor effect in cancer-bearing mouse was evaluated by administering a combination of the anti-CAPRIN-1 antibody (anti-CAPRIN-1 humanized antibody #1) produced in Example 1, and an anti-vascular endothelial growth factor receptor (VEGFR) inhibitor.
Specifically, the antitumor effect of the combination of the anti-CAPRIN-1 antibody and axitinib according to the present invention was studied using NOG mice in which human-derived cancer cells expressing CAPRIN-1 protein were subcutaneously transplanted. Human breast cancer cells BT474 were subcutaneously transplanted at 2×10^7 cells per mouse as a mixture with Matrigel and allowed to grow until a tumor became approximately 100 mm^3 to prepare cancer-bearing mice. Each anti-CAPRIN-1 antibody produced in Example 1 was administered at 10 mg/kg once a week to the tail veins of five cancer-bearing mice described above. To these mice, administration of axitinib was started simultaneously with the initial administration of the anti-CAPRIN-1 antibody, and the administration was performed at 5 or 25 mg/kg twice a day for 9 days and then once a day for 15 days.
For a comparative control group, the same dose of the same anti-CAPRIN-1 antibody as above was administered once a week to cancer-bearing mice. For another comparative control group, axitinib was administered at the same administration intervals and dose as above to other individuals of cancer-bearing mice. Cancer-bearing mice in a non-treatment group were used as negative controls. After the start of administration, the sizes of cancers in the cancer-bearing mice were measured over time using calipers. Tumor volumes were calculated according to a standard method using a calculation expression: (Length of the major axis of the tumor)×(Length of the minor axis of the tumor)^2×0.5.

[2] = tested on: gastroesophageal junction cancer or gastric adenocarcinoma; conditions: RAINBOW trial patients; cited from earlier work
[3] = tested on: Human breast cancer cells BT474; test: Antitumor effect in human breast cancer BT474-bearing NOD-SCID mice (combination with bevacizumab); assay type: in vivo; conditions: day 41 after cancer bearing, antibody 10 mg/kg once a week, bevacizumab 1.25 mg/kg once a week
Method: Human breast cancer cells BT474 were subcutaneously transplanted at 2×10^7 cells per mouse as a mixture with Matrigel (Sigma) and allowed to grow until a tumor became approximately 100 mm^3 to prepare cancer-bearing mice.
For a comparative control group, the same dose of the same anti-CAPRIN-1 antibody as above was administered once a week to cancer-bearing mice. […] Cancer-bearing mice in a non-treatment group were used as negative controls. After the start of administration, the sizes of cancers in the cancer-bearing mice were measured over time using calipers. Tumor volumes were calculated according to a standard method using a calculation expression: (Length of the major axis of the tumor)×(Length of the minor axis of the tumor)^2×0.5.

[4] = biological target: T1, CAPRIN-1 on the cell membrane surface of human cancer cells (Homo sapiens, UniProt Q14444); test: Flow cytometry reactivity with cell membrane surface of human cancer cells expressing CAPRIN-1; assay type: binding; conditions: human cancer cells BT-474, HT-29, QG56, H1650, NCI-N87, HEC-1-A, 22Rv1, Panc10.5, Hep3B, SKOV3, Caki-2, U-87MG, T24, OE33, OCI-AIM5, Ramos, TGBC14TKB, HT-1080, G-361
T1 construct: endogenous in cells; host or cells: BT-474, HT-29, QG56, H1650, NCI-N87, HEC-1-A, 22Rv1, Panc10.5, Hep3B, SKOV3, Caki-2, U-87MG, T24, OE33, OCI-AIM5, Ramos, TGBC14TKB, HT-1080, G-361
T1 sequence (Q14444 1-709): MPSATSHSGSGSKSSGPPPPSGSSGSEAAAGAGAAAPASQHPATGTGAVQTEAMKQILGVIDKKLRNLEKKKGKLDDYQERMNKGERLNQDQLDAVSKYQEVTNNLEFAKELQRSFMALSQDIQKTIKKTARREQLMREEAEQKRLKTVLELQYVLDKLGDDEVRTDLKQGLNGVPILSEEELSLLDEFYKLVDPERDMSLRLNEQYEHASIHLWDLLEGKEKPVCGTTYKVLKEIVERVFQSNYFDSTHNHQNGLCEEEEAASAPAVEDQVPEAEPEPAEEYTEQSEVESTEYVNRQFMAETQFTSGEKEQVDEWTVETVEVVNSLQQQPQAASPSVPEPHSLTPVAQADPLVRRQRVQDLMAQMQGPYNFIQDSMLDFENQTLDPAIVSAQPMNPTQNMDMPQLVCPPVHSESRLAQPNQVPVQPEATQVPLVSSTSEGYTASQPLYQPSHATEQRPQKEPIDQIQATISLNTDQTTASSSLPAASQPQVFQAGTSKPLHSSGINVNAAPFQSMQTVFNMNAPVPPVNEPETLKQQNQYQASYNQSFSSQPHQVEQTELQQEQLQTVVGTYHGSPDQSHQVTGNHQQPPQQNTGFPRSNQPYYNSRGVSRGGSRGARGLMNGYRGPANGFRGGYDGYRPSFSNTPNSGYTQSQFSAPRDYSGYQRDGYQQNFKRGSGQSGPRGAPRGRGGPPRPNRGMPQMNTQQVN
Text: Reactivity of each monoclonal antibody with human cancer cells confirmed to express CAPRIN-1 protein on the cell membrane surface was further confirmed by flow cytometry.
(§1) The reactivity of the anti-CAPRIN-1 antibody with cancer cells without permeation treatment of cell membrane was examined by flow cytometry to confirm that a portion of CAPRIN-1 was expressed on the cell membrane surface of cancer cells as shown in Examples given below.

[5] = biological target: T2, CAPRIN-1 on the cell membrane surface of mouse kidney cancer cells (Renca) and mouse breast cancer cells (4T1) (Mus musculus, UniProt Q60865); test: Flow cytometry reactivity with cell membrane surface of mouse cancer cells expressing CAPRIN-1; assay type: binding; conditions: mouse cancer cells Renca and 4T1
T2 construct: endogenous in cells; host or cells: Renca, 4T1
T2 sequence (Q60865 1-707): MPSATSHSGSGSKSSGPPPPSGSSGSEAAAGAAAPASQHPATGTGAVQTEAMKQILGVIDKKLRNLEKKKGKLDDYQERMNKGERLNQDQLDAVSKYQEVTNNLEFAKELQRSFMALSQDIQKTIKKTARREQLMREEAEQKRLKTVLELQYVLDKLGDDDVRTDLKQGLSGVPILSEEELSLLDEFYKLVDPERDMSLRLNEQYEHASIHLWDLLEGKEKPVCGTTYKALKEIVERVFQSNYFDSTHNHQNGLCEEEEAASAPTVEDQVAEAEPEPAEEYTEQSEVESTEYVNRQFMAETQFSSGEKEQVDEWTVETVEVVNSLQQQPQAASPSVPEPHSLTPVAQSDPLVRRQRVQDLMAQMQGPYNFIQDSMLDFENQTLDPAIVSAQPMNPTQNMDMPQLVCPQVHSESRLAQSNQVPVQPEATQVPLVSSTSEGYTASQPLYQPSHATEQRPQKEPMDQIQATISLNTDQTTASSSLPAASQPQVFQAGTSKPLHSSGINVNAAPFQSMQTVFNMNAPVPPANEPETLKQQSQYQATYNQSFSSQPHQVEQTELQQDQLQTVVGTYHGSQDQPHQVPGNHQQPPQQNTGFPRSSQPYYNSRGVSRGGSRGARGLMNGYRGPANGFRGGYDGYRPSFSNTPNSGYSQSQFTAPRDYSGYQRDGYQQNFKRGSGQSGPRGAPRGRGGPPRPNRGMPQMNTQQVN
Text: as §1

Molecule: CNC(=O)c1ccccc1Sc1ccc2c(/C=C/c3ccccn3)n[nH]c2c1 [axitinib]
tumor volume when the tumor volume of the negative control was defined as 100% ([1]; axitinib 5 mg/kg (alone or with antibody 10 mg/kg once a week)): 39%
tumor volume when the tumor volume of the negative control was defined as 100% ([1]; axitinib 25 mg/kg (alone or with antibody 10 mg/kg once a week)): 27%

Molecule: CC(=O)O[C@H]1C(=O)[C@@]2(C)[C@H]([C@H](OC(=O)c3ccccc3)[C@]3(O)C[C@H](OC(=O)[C@H](O)[C@@H](NC(=O)c4ccccc4)c4ccccc4)C(C)=C1C3(C)C)[C@]1(OC(C)=O)CO[C@@H]1C[C@@H]2O [paclitaxel]
median overall survival [2]: 7.4 months
median progression-free survival [2]: 2.9 months

reactivity with the cell membrane surface of cancer cells (fluorescence intensity vs IgG control) [4]: reacted strongly
reactivity with the cell membrane surface of cancer cells (fluorescence intensity vs IgG control) [5]: reacted strongly
B1: anti-CAPRIN-1 humanized antibody #1: humanized IgG1 antibody with CDRs of the mouse anti-CAPRIN-1 monoclonal antibody (heavy chain SEQ ID NO: 114, light chain SEQ ID NO: 115) (antibody, listed as Mus musculus)
heavy: GPELVKPGASVKMSCKASGYTFTSYVMHWVKQKPGQGLEWIGYINPYNDGTKYNEKFKGKATLTSDKSSSTAYMELSSLTSEDSAVYYCARRYYYGSSGGYFDVWAQDHVRT
light: DVQITQSPSYLAASPGETITINCRASKSISKYLAWYQEKPGKTNKLLIYSGSTLQSGIPSRFSGSGSGTDFTLTISSLEPEDFAMYYCQQHNEYPYTFGGGTKLEIKR
tumor volume when the tumor volume of the negative control was defined as 100% [3]: 52%
tumor volume when the tumor volume of the negative control was defined as 100% ([1]; antibody alone 10 mg/kg once a week): 40%
